Where two headings read alike, the source gives them in different places. Square brackets hold non-standard residues; d marks the D form. Peptide text beside a SMILES is read from it.
Assays:
BT474 cells = assay type: cell-based, human; conditions: 72 h
Description: (§1) Cell culture. SKBR3 and BT474 cells were obtained from ATCC (Rockville, Md.). SKBR3 and BT474 were maintained in McCoy's 5a modified medium and Dulbecco's modified Eagle medium/Ham F12 (1:1) supplemented with 10% heat-inactivated FBS, 100 units/ml penicillin, […] streptomycin, and 2 mM L-glutamine. […] Cells were treated with GO-203 and CP-2 peptides (AnaSpec). […] Viability was determined by trypan blue exclusion.
(§2) Determination of IC50 and synergism. Cells were seeded on 96-well plates in 100 μl of growth medium at a density of 3000 cells per well. After 24 h, the cells were exposed to drugs in treatment medium for an additional 72 h. Cell viability was assessed using the alamar blue viability assay (Invitrogen). Triplicate wells of each treatment were analyzed and each experiment was done three times. The IC50 values were determined by nonlinear regression of the dose-response data using Prism 5.0 for Mac OSX (GraphPad Software). […] Cell viability was determined after treatment for 72 h. The combination index (CI) was calculated to determine the presence of synergism (CI<1) or antagonism (CI>1) using CalcuSyn software (Biosoft).

SKBR3 cells = assay type: cell-based, human
Description: as §1, §2

BT474R tumor xenografts = experiment: Trastuzumab-resistant BT474R tumor xenograft model; assay type: in vivo, BALB/c nu/nu mice; conditions: 7.5 mg/kg GO-203 intravenously each day for 21 days
Description: FIGS. 5A-G. Targeting MUC1-C in trastuzumab-resistant cells suppresses HER3 activation and inhibits growth and clonogenic survival. (FIG. 5A) Lysates from the indicated SKBR3R (left) and BT474R (right) cells were immunoblotted (IB) with anti-p-HER3 and anti-HER3. (FIG. 5B) The indicated SKBR3R (left) and BT474R (right) cells were seeded at 4000 and 1000 cells per well, respectively, and incubated for 12 days. The colony number is expressed as the mean±s.e. of three replicates. (FIG. 5C) SKBR3R cells were treated with […] GO-203 for the indicated times. Lysates were immunoblotted with the indicated antibodies. (FIG. 5D) SKBR3R cells were left untreated (Control; CTL) or treated with […] GO-203 for the indicated times. Cell number (mean±s.e. of three determinations) was determined by Trypan blue staining. (FIG. 5E) BT474R cells were treated with […] GO-203 for the indicated times. Lysates were immunoblotted with the indicated antibodies. (FIG. 5F) BT474R cells were left untreated (Control; CTL) or treated with […] GO-203 for the indicated times. Cell number (mean±s.e. of three determinations) was determined by Trypan blue staining. […] The results are expressed as tumor volume (mean±s.e. for the eight mice in each group).
Trastuzumab-resistant BT474R tumor xenograft model. […] Tumor volumes were calculated as described (Raina et al., 2011).

SKBR3R cells = experiment: cells; assay type: cell-based; conditions: Homo sapiens, 72 h
Description: as §1, §2
(§3) Assessment of drug interaction by Bliss independence. […] Using this equation, if the experimentally measured inhibition is greater than Ei, then the combination is synergistic.38 Plots were generated by Prism GraphPad software.

BT474R cells = experiment: cells; assay type: cell-based, human; conditions: for IC50: Homo sapiens, 72 h
Description: as §1, §2, §3

Structure (SMILES)	IC50 (BT474 cells) [µM]	IC50 (SKBR3 cells) [µM]	weight loss (BT474R tumor xenografts)	IC50 (SKBR3R cells; read-out: Lapatinib (μM) IC50, SKBR3R cells, 72 h, lapatinib alone (Table 3)) [µM]	IC50 (SKBR3R cells; read-out: Lapatinib (μM) IC50, SKBR3R cells, 72 h, lapatinib alone (Table 4)) [µM]	IC50 (SKBR3R cells; read-out: Lapatinib (μM) IC50 with GO-203, SKBR3R cells, 72 h, with 4 μM GO-203) [µM]	IC50 (SKBR3R cells; read-out: Lapatinib (μM) IC50 with Trastuzumab and GO-203, SKBR3R cells, 72 h, with 40 nM trastuzumab+4 μM GO-203) [µM]	IC50 (SKBR3R cells; read-out: Lapatinib (μM) IC50 with Trastuzumab, SKBR3R cells, 72 h, with 40 nM trastuzumab) [µM]	Fold change (BT474R cells; BT474R cells, lapatinib IC50 alone vs with GO-203)	IC50 (BT474R cells; read-out: Lapatinib (μM) IC50, BT474R cells, 72 h, lapatinib alone (Table 3)) [µM]	IC50 (BT474R cells; read-out: Lapatinib (μM) IC50, BT474R cells, 72 h, lapatinib alone (Table 4)) [µM]	IC50 (BT474R cells; read-out: Lapatinib (μM) IC50 with GO-203, BT474R cells, 72 h, with 4 μM GO-203) [µM]	IC50 (BT474R cells; read-out: Lapatinib (μM) IC50 with Trastuzumab and GO-203, BT474R cells, 72 h, with 40 nM trastuzumab+4 μM GO-203) [µM]	IC50 (BT474R cells; read-out: Lapatinib (μM) IC50 with Trastuzumab, BT474R cells, 72 h, with 40 nM trastuzumab) [µM]
N=C(N)NCCC[C@@H](N)C(=O)N[C@H](CCCNC(=N)N)C(=O)N[C@H](CCCNC(=N)N)C(=O)N[C@H](CCCNC(=N)N)C(=O)N[C@H](CCCNC(=N)N)C(=O)N[C@H](CCCNC(=N)N)C(=O)N[C@H](CCCNC(=N)N)C(=O)N[C@H](CCCNC(=N)N)C(=O)N[C@H](CCCNC(=N)N)C(=O)N[C@H](CS)C(=O)N[C@H](CCC(N)=O)C(=O)N[C@H](CS)C(=O)N[C@H](CCCNC(=N)N)C(=O)N[C@H](CCCNC(=N)N)C(=O)N[C@H](CCCCN)C(=O)N[C@H](CC(N)=O)C(=O)O [GO-203] (H-[dR][dR][dR][dR][dR][dR][dR][dR][dR][dC][dQ][dC][dR][dR][dK][dN]-OH)	10.2	5.9	no weight loss											
CS(=O)(=O)CCNCc1ccc(-c2ccc3ncnc(Nc4ccc(OCc5cccc(F)c5)c(Cl)c4)c3c2)o1 [Lapatinib]				1.36	1.7	0.94	0.93	1.5	2.13	1.43	1.5	0.67	0.22	1.2

From patent US9789156B2, “Combination anti-human epidermal growth factor receptor 2 (anti-HER2) cancer therapy using mucin 1 (MUC1) peptides and hemotherapeutics” (DANA-FARBER CANCER INSTITUTE, INC., priority 2013, dated 2017)
